Results from ChEMBL document CHEMBL1201862, “PubChem BioAssay data set” (2004).
Where “and” joins values, the source holds several entries; their conditions need not be identical. Identical values can stand only once.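 Following 48 hours of exposure in 96-well plates, responses at five concentrations were used to interpolate endpoints linearly. GI50 = concentration required for 50% inhibition of growth.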 Calls of active or inactive are those of the source. Rule as the data show it: active = GI50 up to about 1.1 µM and inactive = higher.

Assays:
Experiment in all cases: inhibition of tumour cell growth, NCI panel, 48 h
EKVX = test system: EKVX
MDA-MB-435 = test system: MDA-MB-435
786-0 = test system: 786-0
SK-OV-3 = test system: SK-OV-3
SNB-19 = test system: SNB-19
MCF7 = test system: MCF7
Malme-3M = test system: Malme-3M
NCI-H23 = test system: NCI-H23
SF-268 = test system: SF-268
HCT-15 = test system: HCT-15
DU-145 = test system: DU-145
HOP-62 = test system: HOP-62
SF-295 = test system: SF-295
RXF 393 = test system: RXF 393
MDA-MB-231 = test system: MDA-MB-231
RPMI-8226 = test system: RPMI-8226
SW-620 = test system: SW-620
HCT-116 = test system: HCT-116
HL-60 = test system: HL-60
NCI-H226 = test system: NCI-H226

Row | SMILES | GI50 (EKVX) | GI50 (MDA-MB-435) | GI50 (786-0) | GI50 (SK-OV-3) | GI50 (SNB-19) | GI50 (MCF7) | GI50 (Malme-3M) | GI50 (NCI-H23) | GI50 (SF-268) | GI50 (HCT-15) | GI50 (DU-145) | GI50 (HOP-62) | GI50 (SF-295) | GI50 (RXF 393) | GI50 (MDA-MB-231) | GI50 (RPMI-8226) | GI50 (SW-620) | GI50 (HCT-116) | GI50 (HL-60) | GI50 (NCI-H226)
1 | N=C1C(O)C2(I)c3ccccc3N3C(=N)C(O)C4c5ccccc5N1C4C32 (centres undefined) | > 100 µM (inactive) | 20.4 µM (inactive) | 30.8 µM (inactive) | 40.6 µM (inactive) | 63.7 µM (inactive) | 19.6 µM (inactive) | 21.1 µM (inactive) | 35.6 µM (inactive) | > 100 µM (inactive) | 32.3 µM | > 100 µM (inactive) | 38.3 µM (inactive) | 47.8 µM (inactive) | > 100 µM (inactive) | 26.4 µM (inactive) | 40.9 µM (inactive) | 52.8 µM (inactive) | 36.7 µM (inactive) | 20.2 µM (inactive) | 
2 | Cc1ccc(/N=N/c2c(C)c(C#N)c(=S)n(C3OC(CO)C(O)C(O)C3O)c2C)cc1 (centres undefined) |  | 24.6 µM (inactive) | 28.4 µM (inactive) | 34.7 µM (inactive) | 27.7 µM (inactive) | 35.6 µM (inactive) | 21.7 µM (inactive) | 32.1 µM (inactive) | 50.1 µM (inactive) | 39 µM | 53.1 µM (inactive) | 34.3 µM (inactive) | 36.3 µM (inactive) | 26.1 µM (inactive) | 24.4 µM (inactive) | 46 µM (inactive) | 16 µM (inactive) | 25.8 µM (inactive) | 59.6 µM (inactive) | 
3 | COC(=O)c1c(C)cccc1C1CN=NC12Cc1cc(C)cc(C)c1C2=O (centres undefined) | 39.2 µM (inactive) | 37.2 µM (inactive) | 42.7 µM (inactive) | 38.5 µM (inactive) | 73.3 µM (inactive) | 6.85 µM (inactive) | 26.2 µM (inactive) | 20.7 µM (inactive) | 52.2 µM (inactive) | 30.5 µM | 84.7 µM (inactive) | 44 µM (inactive) | 35.1 µM (inactive) | 34 µM (inactive) | 12.4 µM (inactive) |  | 48.5 µM (inactive) | 27.9 µM (inactive) | 20 µM (inactive) | 58.5 µM (inactive)
4 | NC1=CN2c3ccccc3N(CC(=O)N3CCOCC3)C2C=C1 (centres undefined) | > 100 µM (inactive) | > 100 µM (inactive) | > 100 µM (inactive) | > 100 µM (inactive) | > 100 µM (inactive) | > 100 µM (inactive) | > 100 µM (inactive) | > 100 µM (inactive) | > 100 µM (inactive) | > 100 µM | > 100 µM (inactive) | > 100 µM (inactive) | > 100 µM (inactive) | > 100 µM (inactive) | > 100 µM (inactive) |  | > 100 µM (inactive) | > 100 µM (inactive) | > 100 µM (inactive) | > 100 µM (inactive)
5 | COCOc1cc(OC)ccc1C=O | 52.1 µM (inactive) | 8.39 µM (inactive) | 36.6 µM (inactive) | 62.4 µM (inactive) | 46.1 µM (inactive) | 24.5 µM (inactive) | 11.6 µM (inactive) | 35.6 µM (inactive) | 64.9 µM (inactive) | 36.4 µM | 53.3 µM (inactive) | 72.3 µM (inactive) | 39 µM (inactive) | 14.7 µM (inactive) | 51.3 µM (inactive) |  | 32.8 µM (inactive) | 33.7 µM (inactive) | 26.7 µM (inactive) | 40.8 µM (inactive)
6 | COc1cc(Nc2nc3cc(C(F)(F)F)ccc3nc2C(=O)O)cc(OC)c1OC | 33.3 µM (inactive) | 45.6 µM (inactive) | 52.8 µM (inactive) |  | 41.5 µM (inactive) | 66.5 µM (inactive) | 54.1 µM (inactive) | 45.1 µM (inactive) | 43.9 µM (inactive) | 39.6 µM | 35.1 µM (inactive) | 44.3 µM (inactive) | 27.2 µM (inactive) | 28.9 µM (inactive) | 21.8 µM (inactive) |  | 71.9 µM (inactive) | 32.7 µM (inactive) | 55.2 µM (inactive) | 32.9 µM (inactive)
7 | CC(=O)NC1(C)C(C)C2CC1C(C)C2(C)C (centres undefined) | > 100 µM (inactive) | > 100 µM (inactive) | > 100 µM (inactive) | > 100 µM (inactive) | > 100 µM (inactive) | > 100 µM (inactive) | > 100 µM (inactive) | > 100 µM (inactive) | > 100 µM (inactive) |  | > 100 µM (inactive) | > 100 µM (inactive) | > 100 µM (inactive) | > 100 µM (inactive) | > 100 µM (inactive) |  | > 100 µM (inactive) | > 100 µM (inactive) | > 100 µM (inactive) | > 100 µM (inactive)
8 | NC(=O)C(=CN1C(=O)CC(=O)NC1=S)C(N)=O | > 100 µM (inactive) | > 100 µM (inactive) | > 100 µM (inactive) | > 100 µM (inactive) | > 100 µM (inactive) | > 100 µM (inactive) |  | > 100 µM (inactive) | > 100 µM (inactive) | > 100 µM | > 100 µM (inactive) | > 100 µM (inactive) | > 100 µM (inactive) | > 100 µM (inactive) | > 100 µM (inactive) |  | > 100 µM (inactive) | > 100 µM (inactive) | > 100 µM (inactive) | > 100 µM (inactive)
9 | CC(=O)OC/C=C/Cn1ncc(=O)[nH]c1=O | > 100 µM (inactive) | > 100 µM (inactive) |  |  | > 100 µM (inactive) | > 100 µM (inactive) | > 100 µM (inactive) | > 10 µM (inactive) | > 100 µM (inactive) | > 100 µM | > 100 µM (inactive) | > 100 µM (inactive) |  | > 100 µM (inactive) | > 100 µM (inactive) | > 100 µM (inactive) | > 100 µM (inactive) |  | > 100 µM (inactive) | > 100 µM (inactive)
10 | CSc1c(C(=O)Nc2ccc(C)cc2)c(N)n(N)c(=O)c1C#N | > 100 µM (inactive) | > 100 µM (inactive) | > 100 µM (inactive) | > 100 µM (inactive) | > 100 µM (inactive) | > 100 µM (inactive) | > 100 µM (inactive) | > 100 µM (inactive) | > 100 µM (inactive) | > 100 µM | > 100 µM (inactive) |  |  | > 100 µM (inactive) | > 100 µM (inactive) | > 100 µM (inactive) | > 100 µM (inactive) | > 100 µM (inactive) | > 100 µM (inactive) | > 100 µM (inactive)
11 | CC1C2CCC3C(O)C2(CC(O)C2(O)C1CC(O)C2(C)C)CC3(C)O (centres undefined) | > 100 µM (inactive) | > 100 µM (inactive) | > 100 µM (inactive) | > 100 µM (inactive) | > 100 µM (inactive) | > 100 µM (inactive) | > 100 µM (inactive) | > 100 µM (inactive) | > 100 µM (inactive) | > 100 µM | > 100 µM (inactive) |  | > 100 µM (inactive) |  | 35.8 µM (inactive) |  | > 100 µM (inactive) | > 100 µM (inactive) | > 100 µM (inactive) | > 100 µM (inactive)
12 | CC(=O)N(CN1C(=O)CCC1C(=O)O)c1cccc(O)c1 (centres undefined) | > 100 µM (inactive) | > 100 µM (inactive) | > 100 µM (inactive) | > 100 µM (inactive) | > 100 µM (inactive) | > 100 µM (inactive) | > 100 µM (inactive) | > 100 µM (inactive) | > 100 µM (inactive) | > 100 µM | > 100 µM (inactive) | > 100 µM (inactive) | > 100 µM (inactive) |  | > 100 µM (inactive) | > 100 µM (inactive) | > 100 µM (inactive) | > 100 µM (inactive) | > 100 µM (inactive) | > 100 µM (inactive)
13 | COC(=O)c1ccc(NCC2=CC(=O)C=CC2=O)cc1 | 10.6 µM (inactive) | 11.3 µM (inactive) | 2.46 µM (inactive) | 16.7 µM (inactive) | 14.8 µM (inactive) | 14.2 µM (inactive) | 4.55 µM (inactive) | 14.5 µM (inactive) | 13.7 µM (inactive) | 12.5 µM | 15.5 µM (inactive) |  |  |  | 14.2 µM (inactive) | 2.59 µM (inactive) | 3.75 µM (inactive) | 3.74 µM (inactive) | 2.33 µM (inactive) | 17.9 µM (inactive)
14 | N#C[C@H](c1nc2ccccc2[nH]1)c1nc2ccccc2nc1Cl | 9.68 µM (inactive) | 14.3 µM (inactive) | 7.62 µM (inactive) | > 53.8 µM (inactive) | 19.9 µM (inactive) | > 26 µM (inactive) | 12.4 µM (inactive) | > 34.3 µM (inactive) |  |  | 1.78 µM (inactive) |  | > 61.4 µM (inactive) | > 100 µM (inactive) | 12.7 µM (inactive) | 8.93 µM (inactive) | 6.08 µM (inactive) | 6.25 µM (inactive) | 0.881 µM (active) | 22.1 µM (inactive)
15 | Cc1cccc2c(N)c3cccc(C(=O)NCCN(C)C)c3nc12 | 0.0583 µM (active) | 0.12 µM (active) | < 0.0199 µM (active) | 0.113 µM (active) |  | < 0.0168 µM (active) | 0.173 µM (active) | < 0.0259 µM (active) | < 0.0265 µM (active) | < 0.0154 µM | 0.0188 µM (active) | < 0.0247 µM (active) | < 0.0298 µM (active) | 0.184 µM (active) | 0.0538 µM (active) | < 0.021 µM (active) | < 0.0225 µM (active) | 0.0236 µM (active) | < 0.01 µM (active) | 
16 | COc1ccc2c(c1OC)CN1CCc3cc4c(cc3C1C2)OCO4 (centres undefined) [TETRAHYDROBERBERINE] | > 100 µM (inactive) | > 100 µM (inactive) | > 100 µM (inactive) | > 100 µM (inactive) | > 100 µM (inactive) | > 100 µM (inactive) | > 100 µM (inactive) | > 100 µM (inactive) | > 100 µM (inactive) | > 100 µM | > 100 µM (inactive) | > 100 µM (inactive) | > 100 µM (inactive) |  | > 100 µM (inactive) | > 100 µM (inactive) | > 100 µM (inactive) | > 100 µM (inactive) | > 100 µM (inactive) | > 100 µM (inactive) and 68.7 µM (inactive)
